Measured values taken from paper PMC3658134 (Biochemistry, 2011).
Like-named read-outs stand apart in the source and are kept apart here.

Experiments:
Type in all cases: biochemical
WT SmTGR [1] = biological target: T1, WT SmTGR (Schistosoma mansoni, UniProt Q962Y6); assay: Inhibition of DTNB activity of WT SmTGR
Sec597Cys SmTGR [2] = biological target: T2, Sec597Cys SmTGR (Schistosoma mansoni, UniProt Q962Y6); assay: Inhibition of DTNB activity of Sec597Cys
WT SmTGR [3] = biological target: T1, WT SmTGR; assay: Inhibition of GR activity of WT SmTGR
Sec597Cys SmTGR [4] = biological target: T2, Sec597Cys SmTGR; assay: Inhibition of GR activity of Sec597Cys
WT SmTGR [5] = biological target: T1, WT SmTGR; assay: Inhibition of TrxR activity of WT SmTGR
Sec597Cys SmTGR [6] = biological target: T2, Sec597Cys SmTGR; assay: Inhibition of TrxR activity of Sec597Cys
wild-type TGR (SmTGR) = biological target: T3, wild-type TGR (SmTGR) (Schistosoma mansoni, UniProt Q962Y6); assay: Substrate specificity, NADPH consumption, wild-type TGR
T3 sequence (Q962Y6 1-598): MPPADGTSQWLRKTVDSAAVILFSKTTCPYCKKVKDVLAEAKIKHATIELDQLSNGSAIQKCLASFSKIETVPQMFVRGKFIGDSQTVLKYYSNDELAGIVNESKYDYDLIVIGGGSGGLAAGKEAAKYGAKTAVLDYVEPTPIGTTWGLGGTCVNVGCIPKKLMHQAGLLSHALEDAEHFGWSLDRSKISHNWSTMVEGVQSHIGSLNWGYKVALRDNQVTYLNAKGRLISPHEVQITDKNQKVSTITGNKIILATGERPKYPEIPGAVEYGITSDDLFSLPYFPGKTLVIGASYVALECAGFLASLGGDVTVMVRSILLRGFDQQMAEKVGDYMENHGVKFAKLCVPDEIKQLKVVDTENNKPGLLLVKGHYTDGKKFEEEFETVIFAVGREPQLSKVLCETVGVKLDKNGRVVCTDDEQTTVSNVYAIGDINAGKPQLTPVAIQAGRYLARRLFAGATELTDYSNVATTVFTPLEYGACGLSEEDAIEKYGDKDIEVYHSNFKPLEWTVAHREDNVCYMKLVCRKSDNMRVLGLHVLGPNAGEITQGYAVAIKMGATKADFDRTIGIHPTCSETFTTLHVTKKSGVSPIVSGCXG

Sec597Cys SmTGR [7] = biological target: T2, Sec597Cys SmTGR; assay: Substrate specificity, NADPH consumption, Sec597Cys; conditions: 100 μM NADPH
[8] = Sec597Cys 100 or 150 nM, ND = undetectable activity
[9] = WT enzyme 20 or 100 nM, 100 μM NADPH, ND = undetectable activity

N#Cc1c(-c2ccccc2)no[n+]1[O-] [Fx, 4-phenyl-1,2,5-oxadiazole-3-carbonitrile-2-oxide]
IC50 (WT SmTGR [1]): 3 µM
IC50 (Sec597Cys SmTGR [2]): 6 µM
IC50 (WT SmTGR [3]): 3.2 µM
IC50 (Sec597Cys SmTGR [4]): 2.5 µM
IC50 (WT SmTGR [5]): 5.4 µM
IC50 (Sec597Cys SmTGR [6]): 2.1 µM

O=[Se](O)O [NaSeO3, sodium selenite]
Km (wild-type TGR (SmTGR); WT enzyme 100 nM, 100 μM NADPH): 0.0087 ± 0.0025 mM
Km (Sec597Cys SmTGR [7]; Sec597Cys 100 nM): 0.0173 ± 0.0044 mM

OO [H2O2, hydrogen peroxide]
Km (wild-type TGR (SmTGR)): 17.3 ± 7.6 mM
Vmax (wild-type TGR (SmTGR); pH 7.4): 4.6 ± 0.7 s⁻¹
Km (Sec597Cys SmTGR [7]; [8]): 52.4 ± 9.8 mM

CC(C)(C)OO [t-Butyl-OOH, tert-butyl hydroperoxide]
Km (wild-type TGR (SmTGR); [9]): 75 ± 10 mM
Km (Sec597Cys SmTGR [7]; [8]): 53 ± 5 mM

O=C1NC(=O)C(=O)C(=O)N1 [Alloxan, alloxan]
Km (Sec597Cys SmTGR [7]; [8]): 0.88 ± 0.07 mM

O=C(O)CCCC[C@@H]1CCSS1 (racemic) [Lipoic acid, lipoic acid]
Km (wild-type TGR (SmTGR); [9]): 2.9 ± 0.7 mM
Km (Sec597Cys SmTGR [7]; [8]): 9.3 ± 2.9 mM
